Source: article PMC3183387 (Journal of the American Chemical Society, 2011)

Assays:
[1] = test system: Tyr181Cys Variant Strain of HIV-1; settings: result in words; cited from earlier work
[2] = test system: variant HIV strain that encodes the Tyr181Cys (Y181C) mutation of HIV-RT; assay: Anti-HIV activity against Tyr181Cys variant strain in MT-2 cells; assay type: cell-based, HIV-1; settings: result in words

Structure (SMILES) | activity towards Y181C containing variants [1] | activity against viral strains containing the Tyr181Cys (Y181C) mutation [2]
CC(C)Nc1cccnc1N1CCN(C(=O)c2cc3cc(NS(C)(=O)=O)ccc3[nH]2)CC1 [delavirdine] | do not have useful activity | –
Cc1ccnc2c1NC(=O)c1cccnc1N2C1CC1 [nevirapine] | do not have useful activity | no activity
